Source: paper PMC10266688 (PLOS ONE, 2023)

Legend:
[1] = system: ID8-luc murine ovarian tumor; assay: ID8-Defb29/VegfA-luc syngeneic model, C57BL6 mice; type: in vivo, mouse
Experimental: (§1) Female C57BL6 mice were inoculated IP with 3x10^5 ID8-Defb29/VegfA-luc cells in 100 μL PBS. At day 3, mice were imaged for basal level luminescence activity with a Xenogen IVIS 200 after IP injection with luciferin (0.3 mg in 100 μL water). Mice were randomized into groups and treated IP with compounds or vehicle (25% (w/v) β-Hydroxypropylcyclodextrin in water), and imaged again on days indicated.
(§2) A-C) Female nude mice were inoculated IP with ES2-luc cells, a human ovarian cancer line expressing luciferase. […] The IP tumor tissue and electroporated normal muscle tissue, being spatially distinct, were identified with separate regions of interest (ROI) after simultaneous imaging with IVIS.
Female C57BL6 mice (4–6 weeks) were challenged IP with ID8-luc tumor.

[2] = system: ES2-luc human ovarian tumor; assay: ES2-luc xenograft model, nude mice; type: in vivo, mouse; conditions: 10 mg/kg IP every 3 days
Experimental: as §1, with “Nude” for “C57BL6”, “1x10^6 ES2-luc” for “3x10^5 ID8-Defb29/VegfA-luc cells”
Briefly mice were injected IP with ES2-luc cells, as ovarian cancer primarily spreads through the peritoneum, and it is the origin of primary peritoneal cancer. After four days, these mice were injected IP with luciferin and bioluminescence imaged by IVIS imager as a surrogate of tumor burden. […] Bioluminescent imaging was performed by IVIS 12 and 21 days later.
as §2

Neat solution stability = type: physicochemical; conditions: 10 μM, 37°C
Experimental: (§3) An incubation mixture with, and without NADPH-generating system, as well as a neat solution prepared without microsomes and NADPH-generating system was used. […] All reactions were initiated with the addition of Up284. Incubations were performed in glass tubes maintained at 37°C in a shaker bath. At 0, 30, and 60 minutes, 10 μL samples were withdrawn from the reaction mixture, and 0.5 mL of acetonitrile containing internal standard was added to each. Samples were vortex-mixed and subjected to centrifugation for 5 min at 1430 x g. A 10 μL aliquot of the supernatant was injected onto the LC-MS/MS instrument for qualitative analysis using a temperature-controlled autosampling device operating at 5°C.

[3] = system: PEA2, PACS and SKOV3 cells; assay: Checkerboard combination cytotoxicity (MTT, Synergy finder); type: cell-based; conditions: 72 h
Experimental: Results are reported as mean ± standard deviation (s.d.). Statistical significance of differences was assessed by two-tailed Student’s t using Prism (V.5 Graphpad, San Diego, CA) with the level of significance set at p≤0.05. Survival was summarized using Kaplan–Meier methods and compared using log-rank tests. Combination indices (CI) were calculated using Synergy finder.
Cell viability was measured using MTT assay and data was processed using the Synergy Finder web application. B) Same as in A, PACS cell line derived from spontaneous mouse ovarian tumor [32], was used. (TIF) Click here for additional data file.
Cell viability was measured using MTT assay and data was processed using the Synergy Finder web application. (TIF) Click here for additional data file.

[4] = Microsomal stability, mouse liver microsomes; type: in vitro ADME; conditions: for % Drug Remaining NADPH Neg, Mouse Liver Microsomes / % Drug Remaining NADPH Pos, Mouse Liver Microsomes: 10 μM
Experimental: as §3

ES2 cells = assay: Seahorse assay (OCR, ECAR)
GAPDH, RPN2 and USP14 = assay: CETSA control proteins, SKOV3 cells; type: binding, human; conditions: SKOV3, 10 μM, 30 min
Experimental: Cells were incubated in a thermal cycler (Biorad IQ5 Cycler) over a gradient of temperatures for 4 min, followed by incubation at 25°C for 3 min, then snap-frozen in liquid nitrogen and subjected to three freeze–thaw cycles. Samples were briefly vortexed and centrifuged at 16,000 x g for 20 min at 4°C. Cleared cell lysates were resolved in SDS–PAGE followed by immunoblotting for RPN13, GAPDH, RPN2 and USP14.
Cellular Thermal Shift Assay (CETSA) assesses thermal stabilization of proteins upon ligand binding and is used extensively to detect drug interactions by implementing a thermal shift in the cellular context. The assay involves drug treatment of cells, heating to denature and precipitate proteins in a thermocycler with a specified gradient of temperatures, cell lysis by freeze/thaw cycles, and the separation of cell debris and aggregates from the soluble protein fraction by centrifugation. Whereas unbound proteins denature and precipitate at elevated temperatures, ligand-bound proteins remain in solution. The proportion of individual proteins remaining in solution can be detected by quantitative Western blotting. […]. There was no impact on other control proteins tested, including a house keeping protein (GAPDH) and proteasome subunits (RPN2 and USP14). […]
Resuspended cells were aliquoted into PCR strips. […]

N#Cc1ccc(/C=C2/C(=O)/C(=C/c3ccc(C#N)cc3)C23CCNCC3)cc1 [Up284]
survival vs vehicle ([1]; C57BL6, 20 mg/kg IP every third day for 4 weeks, p = 0.0004): significantly enhanced survival | ID8-luc tumor burden (bioluminescence) vs vehicle ([1]; C57BL6, 20 mg/kg IP every third day, day 15, p = 0.0001): significantly lower tumor burden | ES2-luc xenograft tumor burden (bioluminescence) vs vehicle ([2]; days 12 and 21, p = 0.0002): significantly reduced | overall survival vs vehicle ([2]; p = 0.005): increased overall survival | % Drug Remaining, Neat Solution (Neat solution stability; 0 min): 100% | % Drug Remaining, Neat Solution (Neat solution stability; 30 min): 86% | % Drug Remaining, Neat Solution (Neat solution stability; 60 min): 78% | cytotoxicity of Up284 and doxorubicin combination ([3]; SKOV3 cells): synergy | cytotoxicity of checkerboard combinations of Up284 and cisplatin ([3]; several cell lines including PEA2 and PACS): clear evidence of synergy | additional degradation in the presence of NADPH, mouse liver microsomes [4]: ~ 10% | degradation in mouse liver microsomes without NADPH [4]: ~ 50% | % Drug Remaining NADPH Neg, Mouse Liver Microsomes ([4]; 0 min): 100% | % Drug Remaining NADPH Pos, Mouse Liver Microsomes ([4]; 0 min): 100% | % Drug Remaining NADPH Neg, Mouse Liver Microsomes ([4]; 30 min): 60% | % Drug Remaining NADPH Pos, Mouse Liver Microsomes ([4]; 30 min): 45% | % Drug Remaining NADPH Neg, Mouse Liver Microsomes ([4]; 60 min): 51% | % Drug Remaining NADPH Pos, Mouse Liver Microsomes ([4]; 60 min): 38% | proton leakage (ES2 cells; ES2, 0.5 μM): did not impact | oxygen consumption rate (OCR), basal and FCCP-stimulated, and ATP production (ES2 cells; ES2, 0.5 μM, 12 h): significant decrease in OCR | extracellular acidification rate (ECAR) (ES2 cells; ES2, after 24 h treatment): trend for reduction | thermal stabilization of GAPDH, RPN2 and USP14 (GAPDH, RPN2 and USP14): no impact
